Reference: ChEMBL document CHEMBL1201862, “PubChem BioAssay data set” (2004)
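Where inhibition never reached the appropriate level, the endpoint shown equals the highest concentration tested. Otherwise, values were interpolated linearly from a five-concentration, 48-hour dose response in 96-well plates. GI50 = concentration required for 50% inhibition of growth.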 Activity calls are given as the source filed them. Rule as the data show it: active = GI50 up to about 1.1 µM and inactive = higher.

Key:
Assay in all cases: inhibition of tumour cell growth, NCI panel, 48 h
SW-620 = test system: SW-620
SK-MEL-28 = test system: SK-MEL-28
KM12 = test system: KM12
MDA-N = test system: MDA-N
OVCAR-4 = test system: OVCAR-4
T47D = test system: T47D
ACHN = test system: ACHN
DU-145 = test system: DU-145
A498 = test system: A498
IGROV-1 = test system: IGROV-1
UO-31 = test system: UO-31
SF-295 = test system: SF-295
EKVX = test system: EKVX
OVCAR-3 = test system: OVCAR-3
COLO 205 = test system: COLO 205
HCC 2998 = test system: HCC 2998
NCI/ADR-RES = test system: NCI/ADR-RES
TK-10 = test system: TK-10
786-0 = test system: 786-0
HOP-18 = test system: HOP-18

Measured: GI50

COC(=O)c1ccccc1C1CN=NC12Cc1cc(C)cc(C)c1C2=O (stereo unspecified)
inactive: SW-620 62.7 µM | SK-MEL-28 > 100 µM | KM12 29.9 µM | MDA-N 57 µM | OVCAR-4 65.3 µM | T47D 44.7 µM | ACHN 88.7 µM | DU-145 > 100 µM | A498 2.9 µM | IGROV-1 > 100 µM | UO-31 43 µM | SF-295 48.6 µM | EKVX 70 µM | OVCAR-3 96.6 µM | COLO 205 30.5 µM | HCC 2998 46.9 µM | NCI/ADR-RES 38.4 µM | TK-10 60.4 µM | 786-0 > 100 µM

CCN(CC)c1ccc(/N=N/c2ccc(-c3nc4ccc[n+](C)c4o3)cc2)cc1
inactive: SW-620 4.76 µM | HOP-18 23.7 µM | KM12 11.1 µM | OVCAR-4 12 µM | A498 15.7 µM | IGROV-1 12.9 µM | UO-31 12.7 µM | SF-295 14.8 µM | EKVX 13.6 µM | OVCAR-3 10 µM | COLO 205 2.29 µM | TK-10 12.3 µM | 786-0 11.4 µM

CCN(CC)CC1CCCCN1CC(=O)N1c2ccccc2NC(=O)c2ccccc21 (stereo unspecified)
inactive: SW-620 > 100 µM | SK-MEL-28 > 100 µM | KM12 > 100 µM | MDA-N > 100 µM | OVCAR-4 > 100 µM | T47D > 100 µM | ACHN > 100 µM | DU-145 > 100 µM | A498 > 100 µM | IGROV-1 > 100 µM | UO-31 23.9 µM | SF-295 > 100 µM | EKVX > 100 µM | OVCAR-3 > 100 µM | COLO 205 > 100 µM | HCC 2998 > 100 µM | NCI/ADR-RES > 100 µM | TK-10 > 100 µM | 786-0 > 100 µM

C=CCN1C(=O)CNC1=S
inactive: SW-620 > 100 µM | SK-MEL-28 > 100 µM | KM12 > 100 µM | MDA-N > 100 µM | OVCAR-4 > 100 µM | T47D > 100 µM | ACHN > 100 µM | DU-145 > 100 µM | A498 > 100 µM | IGROV-1 > 100 µM | UO-31 > 100 µM | SF-295 > 100 µM | EKVX > 100 µM | OVCAR-3 > 100 µM | COLO 205 > 100 µM | HCC 2998 > 100 µM | NCI/ADR-RES > 100 µM | TK-10 > 100 µM | 786-0 > 100 µM

CCOP(=O)(OCC)/C(=C/c1ccccc1)CC(C)=O
inactive: SW-620 > 100 µM | SK-MEL-28 > 100 µM | KM12 > 100 µM | MDA-N > 100 µM | OVCAR-4 > 100 µM | T47D > 100 µM | ACHN > 100 µM | DU-145 > 100 µM | A498 > 100 µM | IGROV-1 > 100 µM | UO-31 > 100 µM | SF-295 > 100 µM | EKVX > 100 µM | OVCAR-3 > 100 µM | COLO 205 > 100 µM | HCC 2998 > 100 µM | NCI/ADR-RES > 100 µM | TK-10 > 100 µM | 786-0 > 100 µM

Cc1cc2c(c(/C=N/c3ccc(N(C)C)cc3)c1)OC1(C=C2)Oc2ccccc2C(=O)N1C (stereo unspecified)
inactive: SW-620 17.3 µM | SK-MEL-28 16 µM | KM12 15.5 µM | MDA-N 12.5 µM | OVCAR-4 12.6 µM | T47D 12.5 µM | ACHN 12.2 µM | DU-145 14 µM | A498 19.7 µM | IGROV-1 13.2 µM | UO-31 9.2 µM | SF-295 21.2 µM | EKVX 12.5 µM | OVCAR-3 > 35.2 µM | COLO 205 17.5 µM | HCC 2998 16.6 µM | NCI/ADR-RES 16.5 µM | TK-10 16.3 µM | 786-0 14.2 µM

COc1ccc(-c2nc(SCC(=O)N/N=C/c3ccc(N(C)C)cc3)[nH]c2-c2ccc(OC)cc2)cc1
inactive: SW-620 48 µM | SK-MEL-28 > 100 µM | KM12 32.6 µM | MDA-N 76.9 µM | OVCAR-4 > 100 µM | T47D 10.6 µM | ACHN 51.9 µM | DU-145 78.5 µM | A498 71.9 µM | IGROV-1 > 100 µM | UO-31 82.8 µM | SF-295 37 µM | EKVX 90.4 µM | OVCAR-3 20.1 µM | COLO 205 10.2 µM | HCC 2998 75.9 µM | NCI/ADR-RES > 100 µM | TK-10 > 100 µM | 786-0 57.7 µM

O=C1CCc2c(sc3ncnc(Nc4cccc(Br)c4)c23)C1
inactive: SW-620 3.62 µM | SK-MEL-28 24.2 µM | KM12 3.6 µM | MDA-N 2.65 µM | OVCAR-4 2.52 µM | T47D 2.4 µM | ACHN 1.69 µM | DU-145 3.42 µM | A498 14 µM | IGROV-1 1.68 µM | UO-31 1.99 µM | SF-295 3.88 µM | EKVX 2.19 µM | OVCAR-3 2.51 µM | COLO 205 7.36 µM | HCC 2998 4.26 µM | NCI/ADR-RES 2.94 µM | TK-10 4.06 µM | 786-0 4.43 µM
